From US20240417370A1, “LIPIDS FOR USE IN LIPID NANOPARTICLE FORMULATIONS” (Acuitas Therapeutics, Inc., priority 2023, published 2024) come the findings set out here.

The test relates to human IgG in mouse serum. The test can be described thus: Immunoglobulin G (IgG) mRNA in vivo evaluation using lipid nanoparticle compositions. On the set-up: species or system mice. Particulars: LNP-formulated lipid, tail vein injection, μg IgG/mL serum 24 hours after administration; for Serum IgG @ 0.3 mg/kg: 0.3 mg mRNA/kg; for Serum IgG @ 1.0 mg/kg: 1.0 mg mRNA/kg. The procedure:
A lipid of structure (I), DSPC, cholesterol and PEG-lipid are solubilized in ethanol at a molar ratio of 50:10:38.5:1.5 or 47.5:10:40.7:1.8. Lipid nanoparticles (LNP) are prepared at a total lipid to mRNA weight ratio of approximately 10:1 to 40:1. Briefly, the mRNA is diluted to 0.2 mg/mL in 10 to 50 mM citrate buffer, pH 4 to 6 or 10 to 25 mM acetate buffer, pH 4 to 6. Syringe pumps are used to mix the ethanolic lipid solution with the mRNA aqueous solution at a ratio of about 1:5 to 1:3 (vol/vol) with total flow rates above 15 mL/min. The ethanol is then removed, and the external buffer replaced with PBS by dialysis. Finally, the lipid nanoparticles are filtered through a 0.2 µm pore sterile filter.
Studies are performed in 6-8-week-old CD-1/ICR mice (Envigo, Charles River, or Inotiv) according to guidelines established by an institutional animal care committee (ACC) and the Canadian Council on Animal Care (CCAC). Varying doses of mRNA-lipid nanoparticle are systemically administered by tail vein injection and animals euthanized at a specific time point (e.g., 24 hours) post-administration. The whole blood is collected, and the serum subsequentially separated by centrifuging the tubes of the whole blood at 2000×g for 10 minutes at 4° C. and stored at −80° C. until use for analysis.
For immunoglobulin G (IgG) ELISA (Life Diagnostics Human IgG ELISA kit), the serum samples are diluted at 100 to 20,000 folds with 1× diluent solution. 100 μL of diluted serum is dispensed into anti-human IgG coated 96-well plate in duplicate alongside human IgG standards and incubated in a plate shaker at 150 rpm at 25° C. for 45 minutes. The wells are washed 5 times with 1× wash solution using a plate washer (400 μL/well). 100 μL of HRP conjugate is added into each well and incubated in a plate shaker at the same condition above. The wells are washed 5 times again with 1× wash solution using a plate washer (400 μL/well). 100 μL of TMB reagent is added into each well and incubated in a plate shaker at the same condition above. The reaction is stopped by adding 100 μL of Stop solution to each well. The absorbance is read at 450 nm (A450) with a microplate reader. The amount of human IgG in mouse serum is determined by plotting A450 values for the assay standard against human IgG concentration.
Representative compounds of the disclosure shown in Table 2 were formulated using the following molar ratio: 50% cationic lipid/10% distearoylphosphatidylcholine (DSPC)/38.5% Cholesterol/1.5% PEG lipid 2-[2-(ω-methoxy(polyethyleneglycol2000)ethoxy]-N,N-ditetradecylacetamide) or 47.5% cationic lipid/10% DSPC/40.7% Cholesterol/1.8% PEG lipid. Relative activity was determined by measuring luciferase expression in the liver 4 hours following administration via tail vein injection as described in Example 1 or by measuring the amount of human IgG in mouse serum as described in example 2. The activity was compared at a dose of 1.0 or 0.5 or 0.3 mg mRNA/kg and expressed as ng luciferase/g liver measured 4 hours after administration, as described in Example 1 or as μg IgG/mL serum measured 24 hours after administration, as described in Example 2. Compound numbers in Table 2 refer to the compound numbers of Table 1.

On to `CCCCCCCCCCN(CCCCCCCCCC)C(=O)C(F)CCCCCCN(CCCCCCC(F)C(=O)N(CCCCCCCCCC)CCCCCCCCCC)CC[C@H]1C[C@@H](O)C1` (stereo partly drawn) [(1S, 3R) I-19, 8,8′-((2-((1S,3R)-3-hydroxycyclobutyl)ethyl)azanediyl)bis(N,N-didecyl-2-fluorooctanamide)], for which the “Serum IgG @ 0.3 mg/kg” value was 30.68 ± 8.05 µg/mL and the “Serum IgG @ 1.0 mg/kg” value was determined as 267.70 ± 45.90 µg/mL.
For the compound `CCCCCCCCCCN(CCCCCCCCCC)C(=O)CCCCCCCN(CCCCCCCC(=O)N(CCCCCCCCCC)CCCCCCCCCC)[C@H]1C[C@@H](O)C1` [(1S, 3S) I-10, 8,8′-(((1S,3S)-3-hydroxycyclobutyl)azanediyl)bis(N,N-didecyloctanamide)], the “Serum IgG @ 0.3 mg/kg” value is 27.62 ± 9.67 µg/mL and the “Serum IgG @ 1.0 mg/kg” value was found to be 187.67 ± 66.41 µg/mL.
With `CCCCCCCCCCN(CCCCCCCCN(CCCCCCCC(=O)N(CCCCCCCCCC)CCCCCCCCCC)C[C@H]1C[C@@H](O)C1)C(=O)CCCCCCCCC` [(1S, 3S) I-21, N-decyl-N-(8-((8-(didecylamino)-8-oxooctyl)(((1S,3S)-3-hydroxycyclobutyl)methyl)amino)octyl)decanamide], the “Serum IgG @ 0.3 mg/kg” value is 71.49 ± 12.31 µg/mL.
In the case of `CCCCCCCCCCN(CCCCCCCCN(CCCCCCCCN(CCCCCCCCCC)C(=O)CCCCCCCCC)C[C@H]1C[C@@H](O)C1)C(=O)CCCCCCCCC` [(1S, 3S) I-22, N,N′-(((((1S,3S)-3-hydroxycyclobutyl)methyl)azanediyl)bis(octane-8,1-diyl))bis(N-decyldecanamide)], the “Serum IgG @ 0.3 mg/kg” value is 50.48 ± 11.93 µg/mL.
Consider `CCCCCCCCCCN(CCCCCCCCCC)C(=O)CCCCCCCN(CCCCCCCC(=O)N(CCCCCCCCCC)CCCCCCCCCC)[C@H]1C[C@@H](CO)C1` [(1S, 3S) I-24, 8,8′-(((1S,3S)-3-(hydroxymethyl)cyclobutyl)azanediyl)bis(N,N-didecyloctanamide)], for which the “Serum IgG @ 0.3 mg/kg” value came out at 20.09 ± 5.90 µg/mL and the “Serum IgG @ 1.0 mg/kg” value was determined as 57.71 ± 10.58 µg/mL.
With `CCCCCCCCCCN(CCCCCCCCCC)C(=O)CCCCCCCN(CCCCCCCC(=O)N(CCCCCCCCCC)CCCCCCCCCC)[C@H]1CC[C@@H](O)CC1` [(1S, 4S) I-9, 8,8′-(((1s,4s)-4-hydroxycyclohexyl)azanediyl)bis(N,N-didecyloctanamide)], the “Serum IgG @ 0.3 mg/kg” value stood at 97.57 ± 19.26 µg/mL and the “Serum IgG @ 1.0 mg/kg” value was 257.42 ± 91.86 µg/mL.
In the same order, the values of `CCCCCCCCCCN(CCCCCCCCCC)C(=O)CCCCCCCN(CCCCCCCC(=O)N(CCCCCCCCCC)CCCCCCCCCC)[C@H]1CC[C@@H](CO)CC1` [(1S, 4S) I-23, 8,8′-(((1S,4S)-4-(hydroxymethyl)cyclohexyl)azanediyl)bis(N,N-didecyloctanamide)] are 34.48 ± 9.25 µg/mL and 273.72 ± 52.70 µg/mL.
The matching figures for `CCCCCCCCCCN(CCCCCCCCCC)C(=O)CCCCCCCN(CCCCCCCC(=O)N(CCCCCCCCCC)CCCCCCCCCC)[C@H]1CC[C@@](C)(O)CC1` [(1S, 4S) I-25, 8,8′-(((1S,4S)-4-hydroxy-4-methylcyclohexyl)azanediyl)bis(N,N-didecyloctanamide)]: 39.96 ± 10.72 µg/mL and 194.38 ± 27.83 µg/mL.
The matching figures for `CCCCCCCCCCN(CCCCCCCCN(CCCCCCCC(=O)N(CCCCCCCCCC)CCCCCCCCCC)[C@H]1CC[C@@H](O)CC1)C(=O)CCCCCCCCC` [(1S, 4S) I-47, N-decyl-N-(8-((8-(didecylamino)-8-oxooctyl)((1s,4s)-4-hydroxycyclohexyl)amino)octyl)decanamide]: 55.53 ± 11.50 µg/mL and 158.59 ± 40.38 µg/mL.
For `CCCCCCCCCCN(CCCCCCCCCC)C(=O)C(F)CCCCCCN(CCCCCCC(F)C(=O)N(CCCCCCCCCC)CCCCCCCCCC)[C@H]1CC[C@@H](O)CC1` (stereo partly drawn) [(1S, 4S) I-49, 8,8′-(((1s,4s)-4-hydroxycyclohexyl)azanediyl)bis(N,N-didecyl-2-fluorooctanamide)], the “Serum IgG @ 0.3 mg/kg” value is 60.49 ± 26.40 µg/mL and the “Serum IgG @ 1.0 mg/kg” value amounted to 332.8 ± 57.13 µg/mL.
Consider `CCCCCCCCCC(CCCCCCCCC)NC(=O)CCCCCCCN(CCCCCCCC(=O)NC(CCCCCCCCC)CCCCCCCCC)[C@H]1CC[C@@H](O)CC1` [(1S, 4S) I-50, 8,8′-(((1s,4s)-4-hydroxycyclohexyl)azanediyl)bis(N-(nonadecan-10-yl)octanamide)], for which the “Serum IgG @ 0.3 mg/kg” value was 29.82 ± 7.79 µg/mL.
`C=CCCCCCCCCN(CCCCCCCCCC)C(=O)CCCCCCCN(CCCCCCCC(=O)N(CCCCCCCCC=C)CCCCCCCCCC)[C@H]1CC[C@@H](O)CC1` [(1S, 4S) I-51, 8,8′-(((1s,4s)-4-hydroxycyclohexyl)azanediyl)bis(N-(dec-9-en-1-yl)-N-decyloctanamide)]: the “Serum IgG @ 0.3 mg/kg” value came to 80.37 ± 26.77 µg/mL.
Turning to `CCCCCCCCCCCCN(CCCCCC)C(=O)CCCCCCCN(CCCCCCCC(=O)N(CCCCCC)CCCCCCCCCCCC)[C@H]1CC[C@@H](O)CC1` [(1S, 4S) I-52], the “Serum IgG @ 0.3 mg/kg” value was 40.24 ± 18.53 µg/mL.
`C=CCCCCCCCCN(CCCCCCCCC=C)C(=O)CCCCCCCN(CCCCCCCC(=O)N(CCCCCCCCC=C)CCCCCCCCC=C)[C@H]1CC[C@@H](O)CC1` [(1S, 4S) I-53, 8,8′-(((1s,4s)-4-hydroxycyclohexyl)azanediyl)bis(N,N-di(dec-9-en-1-yl)octanamide)]: the “Serum IgG @ 0.3 mg/kg” value stood at 81.56 ± 44.40 µg/mL.
For the compound `CCCCCCCCC(CCCCCCCC)N(CCCC)C(=O)CCCCCCCN(CCCCCCCC(=O)N(CCCC)C(CCCCCCCC)CCCCCCCC)[C@H]1CC[C@@H](O)CC1` [(1S, 4S) I-54, 8,8′-(((1s,4s)-4-hydroxycyclohexyl)azanediyl)bis(N-butyl-N-(heptadecan-9-yl)octanamide)], the “Serum IgG @ 0.3 mg/kg” value is 43.22 ± 12.97 µg/mL.
The same measure, in the same setting: with `CCCCCCCCCCCCN(CCCCCCCC)C(=O)CCCCCCCN(CCCCCCCC(=O)N(CCCCCCCCCC)CCCCCCCCCC)[C@H]1CC[C@@H](O)CC1` [(1S, 4S) I-55, N,N-didecyl-8-((8-(dodecyl(octyl)amino)-8-oxooctyl)((1s,4s)-4-hydroxycyclohexyl)amino)octanamide] the figure was 72.2 ± 14.87 µg/mL.
Take `CCCCCCCCCCCCN(CCCCCC)C(=O)CCCCCCCN(CCCCCCCC(=O)N(CCCCCCCCCC)CCCCCCCCCC)[C@H]1CC[C@@H](O)CC1` [(1S, 4S) I-56, N,N-didecyl-8-((8-(dodecyl(hexyl)amino)-8-oxooctyl)((1s,4s)-4-hydroxycyclohexyl)amino)octanamide]: the “Serum IgG @ 0.3 mg/kg” value turned out to be 52.9 ± 17.00 µg/mL.
Turning to `C=CCCCCCCCCN(CCCCCCCCC=C)C(=O)CCCCCCCN(CCCCCCCC(=O)N(CCCCCCCCCC)CCCCCCCCCC)[C@H]1CC[C@@H](O)CC1` [(1S, 4S) I-57, N,N-di(dec-9-en-1-yl)-8-((8-(didecylamino)-8-oxooctyl)((1s,4s)-4-hydroxycyclohexyl)amino)octanamide], the “Serum IgG @ 0.3 mg/kg” value came to 84.4 ± 35.10 µg/mL.
The same measure, in the same setting: with `CCCCCCCCCCN(CCCCCCCCCC)C(=O)CCCCCCCN(CCCCCCCC(=O)NC(CCCCCCCCC)CCCCCCCCC)[C@H]1CC[C@@H](O)CC1` [(1S, 4S) I-58, N,N-didecyl-8-(((1s,4s)-4-hydroxycyclohexyl)(8-(nonadecan-10-ylamino)-8-oxooctyl)amino)octanamide] the figure was 61.75 ± 11.64 µg/mL; with `CCCCCCCCCCN(CCCCCCCCCC)C(=O)CCCCCCCN(CCCCCCCC(=O)N(CCCC)C(CCCCCCCC)CCCCCCCC)[C@H]1CC[C@@H](O)CC1` [(1S, 4S) I-59, N-butyl-8-((8-(didecylamino)-8-oxooctyl)((1s,4s)-4-hydroxycyclohexyl)amino)-N-(heptadecan-9-yl)octanamide], 84.23 ± 17.22 µg/mL.
Consider `CCCCCCCCCCN(CCCCCCCCCC)C(=O)CCCCCCCCCN(CCCCCCCCCC(=O)N(CCCCCCCCCC)CCCCCCCCCC)[C@H]1CC[C@@H](O)CC1` [(1S, 4S) I-60, 10,10′-(((1s,4s)-4-hydroxycyclohexyl)azanediyl)bis(N,N-didecyldecanamide)], for which the “Serum IgG @ 0.3 mg/kg” value came to 15.65 ± 5.31 µg/mL.
